Consider 22 molecules from US7709482B2, “Polycyclic heteroaryl substituted triazoles useful as Axl inhibitors” (Rigel Pharmaceuticals, Inc., priority 2006, dated 2010).

Read-outs that look alike come from different tables or passages of the source.

In this test the target is T1, Axl (Homo sapiens, UniProt P30530).
T1 construct: endogenous in cells; host or cells: HeLa cells
T1 sequence (P30530 26-894): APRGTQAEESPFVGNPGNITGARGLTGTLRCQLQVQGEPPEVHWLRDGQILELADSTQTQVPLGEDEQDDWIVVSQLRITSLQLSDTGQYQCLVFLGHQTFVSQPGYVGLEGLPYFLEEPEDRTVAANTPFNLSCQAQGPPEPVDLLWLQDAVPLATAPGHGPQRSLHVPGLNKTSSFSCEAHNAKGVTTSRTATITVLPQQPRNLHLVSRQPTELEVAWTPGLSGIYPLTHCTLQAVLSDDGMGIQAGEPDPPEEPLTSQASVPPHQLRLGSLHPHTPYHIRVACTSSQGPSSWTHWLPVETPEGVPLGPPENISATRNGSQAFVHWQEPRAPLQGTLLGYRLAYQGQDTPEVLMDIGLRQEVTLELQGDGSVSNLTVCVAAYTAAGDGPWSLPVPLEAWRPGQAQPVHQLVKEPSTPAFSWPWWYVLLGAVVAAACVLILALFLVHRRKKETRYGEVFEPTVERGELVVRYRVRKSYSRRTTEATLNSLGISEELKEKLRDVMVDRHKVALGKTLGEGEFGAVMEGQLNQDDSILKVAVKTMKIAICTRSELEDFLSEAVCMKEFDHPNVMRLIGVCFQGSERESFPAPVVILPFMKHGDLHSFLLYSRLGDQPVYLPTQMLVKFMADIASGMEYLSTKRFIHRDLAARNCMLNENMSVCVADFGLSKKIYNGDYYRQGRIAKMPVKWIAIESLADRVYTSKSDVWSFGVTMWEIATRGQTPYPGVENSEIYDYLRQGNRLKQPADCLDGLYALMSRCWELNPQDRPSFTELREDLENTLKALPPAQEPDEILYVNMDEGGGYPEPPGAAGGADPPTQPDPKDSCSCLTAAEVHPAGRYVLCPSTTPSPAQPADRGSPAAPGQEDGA
Briefly: Phospho-Akt In-Cell Western Assay (inhibition of Axl activity after Axl-antibody cross-linking). The test is classed as cell-based. Summed up:
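Phospho-Akt was detected in formaldehyde-fixed cells by in-cell immunostaining with HRP chemiluminescence. Before fixation, HeLa cells kept 24 h in low-serum medium containing 500 ng/mL Axl/Fc received compound for 1 h at 37 °C, followed by 5-min Axl activation through antibody clustering.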

Setting [1] is: Hela cells, phospho-Akt chemiluminescence normalized to relative cell number, compounds of formula (Ia), Table 1, read-out: IC50.
[2] abbreviates: inhibition of Axl activity, Table 1, compounds of formula (Ia), read-out: IC50.

A word on the IC50: it is the concentration needed to halve the response being measured. `CN(C1CCc2ccc(Nc3nc(N)n(-c4cc5c(nn4)-c4ccccc4CCC5)n3)cc2CC1)C1CC2CCC1C2` (stereo not shown) [Compound 24, 1-(6,7-dihydro-5H-benzo[6,7]cyclohepta[1,2-c]pyridazin-3-yl)-N^3-(7-((bicyclo[2.2.1]heptan-2-yl)(methyl)amino)-6,7,8,9-tetrahydro-5H-benzo[7]annulene-2-yl)-1H-1,2,4-triazole-3,5-diamine]: under setting [1], the IC50 is 1000 to 10000 nM. For the molecule `CCN(CC)CCN(C)C1CCc2ccc(Nc3nc(N)n(-c4cc5c(nn4)-c4ccccc4CCC5)n3)cc2CC1` (stereo not shown) [Compound 231, 1-(6,7-dihydro-5H-benzo[6,7]cyclohepta[1,2-c]pyridazin-3-yl)-N^3-(7-(2-(diethylamino)ethyl)methyl-amino-6,7,8,9-tetrahydro-5H-benzo[7]annulene-2-yl)-1H-1,2,4-triazole-3,5-diamine], the IC50 under setting [2] is < 1000 nM. On the same count and under the same terms, under `Nc1nc(Nc2ccc3c(c2)CCC(N2CCCCC2)CC3)nn1-c1cc2c(nn1)-c1ccccc1CCC2` (stereo not shown) [Compound 150, 1-(6,7-dihydro-5H-benzo[6,7]cyclohepta[1,2-c]pyridazin-3-yl)-N^3-((7-piperidin-1-yl)-6,7,8,9-tetrahydro-5H-benzo[7]annulene-2-yl)-1H-1,2,4-triazole-3,5-diamine] stands < 1000 nM. In the case of `Nc1nc(Nc2ccc(N3CCCC(N4CCCC4)CC3)c(F)c2)nn1-c1cc2c(nn1)-c1ccccc1CCC2` (stereo not shown) [Compound 77, 1-(6,7-dihydro-5H-benzo[6,7]cyclohepta[1,2-c]pyridazin-3-yl)-N^3-(3-fluoro-4-(4-pyrrolidin-1-yl-azepan-1-yl)phenyl)-1H-1,2,4-triazole-3,5-diamine], under setting [1], the IC50 is < 1000 nM.

On to `CN1CCN(C2CCc3ccc(Nc4nc(N)n(-c5cc6c(nn5)-c5ccccc5CCC6)n4)cc3CC2)CC1` (stereo not shown) [Compound 227, 1-(6,7-dihydro-5H-benzo[6,7]cyclohepta[1,2-c]pyridazin-3-yl)-N^3-(7-(4-methylpiperazin-1-yl)-6,7,8,9-tetrahydro-5H-benzo[7]annulene-2-yl)-1H-1,2,4-triazole-3,5-diamine], for which, under setting [2], the IC50 was < 1000 nM. `Nc1nc(Nc2ccc(N3Cc4ccccc4C3)c(F)c2)nn1-c1cc2c(nn1)-c1ccccc1SCC2` [Compound 123, 1-(6,7-dihydro-5H-benzo[2,3]thiepino[4,5-c]pyridazin-3-yl)-N^3-(3-fluoro-4-(isoindolin-2-yl)phenyl)-1H-1,2,4-triazole-3,5-diamine]: under setting [1], the IC50 is > 20000 nM. `Nc1nc(Nc2ccc3c(c2)CCC(N2CCC(CN4CCCCC4)CC2)CC3)nn1-c1cc2c(nn1)-c1ccccc1CCC2` (stereo not shown) [Compound 233, 1-(6,7-dihydro-5H-benzo[6,7]cyclohepta[1,2-c]pyridazin-3-yl)-N^3-(7-(4-(piperidin-1-ylmethyl)piperidin-1-yl)-6,7,8,9-tetrahydro-5H-benzo[7]annulene-2-yl)-1H-1,2,4-triazole-3,5-diamine]: the IC50 under setting [2] is < 1000 nM. Regarding `Nc1nc(Nc2ccc3c(c2)CCC(NC2CC2)CC3)nn1-c1cc2c(nn1)-c1ccccc1CCC2` (stereo not shown) [Compound 225, 1-(6,7-dihydro-5H-benzo[6,7]cyclohepta[1,2-c]pyridazin-3-yl)-N^3-(7-cyclopropylamino-6,7,8,9-tetrahydro-5H-benzo[7]annulene-2-yl)-1H-1,2,4-triazole-3,5-diamine], the IC50 under setting [2] was < 1000 nM. For `CCN(CC)C1CCN(c2ccc(Nc3nc(N)n(-c4cc5c(nn4)-c4ccccc4CCC5)n3)cc2F)CC1` [Compound 36, 1-(6,7-dihydro-5H-benzo[6,7]cyclohepta[1,2-c]pyridazin-3-yl)-N^3-(3-fluoro-4-(4-(diethylamino)piperidin-1-yl)phenyl)-1H-1,2,4-triazole-3,5-diamine], the IC50 under setting [1] is < 1000 nM. Regarding `Nc1nc(Nc2ccc(C3CCN(CC4CC4)CC3)cc2)nn1-c1cc2c(nn1)-c1ccccc1CCC2` [Compound 212, 1-(6,7-dihydro-5H-benzo[6,7]cyclohepta[1,2-c]pyridazin-3-yl)-N^3-(4-(1-cyclopropylmethylpiperidin-4-yl)phenyl)-1H-1,2,4-triazole-3,5-diamine], the IC50 under setting [2] was < 1000 nM. The same measure, in the same setting: the figure for `Nc1nc(Nc2ccc3c(c2)CNCC3)nn1-c1cc2c(nn1)-c1ccccc1CCC2` [Compound 213, 1-(6,7-dihydro-5H-benzo[6,7]cyclohepta[1,2-c]pyridazin-3-yl)-N^3-(1,2,3,4-tetrahydroisoquinolin-7-yl)-1H-1,2,4-triazole-3,5-diamine] is < 1000 nM. As for `Nc1cccc(-c2ccc(Nc3nc(N)n(-c4cc5c(nn4)-c4ccccc4CCC5)n3)cn2)c1` [Compound 95, 1-(6,7-dihydro-5H-benzo[6,7]cyclohepta[1,2-c]pyridazin-3-yl)-N^3-(6-(3-aminophenyl)pyridine-3-yl)-1H-1,2,4-triazole-3,5-diamine], the IC50 under setting [1] was > 20000 nM. For the molecule `Nc1nc(Nc2ccc(N3CCC(CN4CCCC4)CC3)c(F)c2)nn1-c1cc2c(nn1)-c1ccccc1SCC2` [Compound 125, 1-(6,7-dihydro-5H-benzo[2,3]thiepino[4,5-c]pyridazin-3-yl)-N^3-(3-fluoro-4-(4-(pyrrolidinylmethyl)-piperidinyl)phenyl)-1H-1,2,4-triazole-3,5-diamine], under setting [1], the IC50 is < 1000 nM.

With `CN(C)CCNC(=O)c1ccc(Nc2nc(N)n(-c3cc4c(nn3)-c3ccccc3CCC4)n2)cc1` [Compound 19, 1-(6,7-dihydro-5H-benzo[6,7]cyclohepta[1,2-c]pyridazin-3-yl)-N^3-(4-((2-(dimethylamino)ethyl)-aminocarbonyl)phenyl)-1H-1,2,4-triazole-3,5-diamine], the half-inhibitory concentration (IC50) under setting [1] was in the range of 1000 to 10000 nM. As to `Nc1nc(Nc2ccc(N3CCC(N4CCOCC4)CC3)c(F)c2)n(-c2cc3c(nn2)-c2ccccc2CCC3)n1` [Compound 158, 1-(6,7-dihydro-5H-benzo[6,7]cyclohepta[1,2-c]pyridazin-3-yl)-N^5-(3-fluoro-4-(4-(morpholin-4-yl)piperidin-1-yl)phenyl)-1H-1,2,4-triazole-3,5-diamine], the IC50 (Hela cells, phospho-Akt chemiluminescence normalized to relative cell number, compounds of formula (Ib), Table 2, read-out: IC50) is > 20000 nM. Consider `CN(C)CCNC1CCc2ccc(Nc3nc(N)n(-c4cc5c(nn4)-c4ccccc4CCC5)n3)cc2CC1` (stereo not shown) [Compound 235], for which the IC50 under setting [2] was < 1000 nM. Same read-out and setting: the figure for `Nc1nc(Nc2ccc3c(c2)CCC(NCC2CCCO2)CC3)nn1-c1cc2c(nn1)-c1ccccc1CCC2` (stereo not shown) [Compound 228, 1-(6,7-dihydro-5H-benzo[6,7]cyclohepta[1,2-c]pyridazin-3-yl)-N^3-(7-(tetrahydrofuran-2-ylmethyl)amino-6,7,8,9-tetrahydro-5H-benzo[7]annulene-2-yl)-1H-1,2,4-triazole-3,5-diamine] is < 1000 nM.

On to `Nc1nc(Nc2ccc3c(c2)CCC(=O)CC3)nn1-c1cc2c(nn1)-c1ccccc1CCC2` [Compound 223, 1-(6,7-dihydro-5H-benzo[6,7]cyclohepta[1,2-c]pyridazin-3-yl)-N^3-(7-oxo-6,7,8,9-tetrahydro-5H-benzo[7]annulene-2-yl)-1H-1,2,4-triazole-3,5-diamine], for which, under setting [2], the IC50 is < 1000 nM. For `Nc1nc(Nc2ccc(C(=O)N3CCC(N4CCCC4)CC3)cc2)nn1-c1cc2c(nn1)-c1ccccc1CCC2` [Compound 22, 1-(6,7-dihydro-5H-benzo[6,7]cyclohepta[1,2-c]pyridazin-3-yl)-N^3-(4-((4-(pyrrolidin-1-yl)piperidin-1-yl)carbonyl)phenyl)-1H-1,2,4-triazole-3,5-diamine], the IC50 under setting [1] is < 1000 nM. As to `CN1CCCC(Oc2ccc(Nc3nc(N)n(-c4cc5c(nn4)-c4ccccc4CCC5)n3)cc2)C1` (stereo not shown) [Compound 210, 1-(6,7-dihydro-5H-benzo[6,7]cyclohepta[1,2-c]pyridazin-3-yl)-N^3-(4-(1-methylpiperidin-3-yl-oxy)phenyl)-1H-1,2,4-triazole-3,5-diamine], the IC50 under setting [2] was < 1000 nM. The same measure, in the same setting: the figure for `Nc1nc(Nc2ccc(N3CCC(N4CCCC4)CC3)c(F)c2)nn1-c1cc2c(nn1)CCCc1ccccc1-2` [Compound 178, 1-(6,7-dihydro-5H-benzo[6,7]cyclohepta[4,5-c]pyridazin-2-yl)-N^3-(3-fluoro-4-(4-pyrrolidin-1-ylpiperidin-1-yl)phenyl)-1H-1,2,4-triazole-3,5-diamine] is < 1000 nM. With `Nc1nc(Nc2ccc(N3CCC(N4C(=O)Cc5ccccc54)CC3)c(F)c2)nn1-c1cc2c(nn1)-c1ccccc1CCC2` [Compound 7, 1-(6,7-dihydro-5H-benzo[6,7]cyclohepta[1,2-c]pyridazin-3-yl)-N^3-(3-fluoro-4-(4-(indolin-2-on-1-yl)piperidin-1-yl)phenyl)-1H-1,2,4-triazole-3,5-diamine], the IC50 is > 20000 nM.
